Results from ChEMBL document CHEMBL3875217, “Identification of a melampomagnolide B analog as a potential lead molecule for treatment of acute myelogenous leukemia” (Bioorg Med Chem, 2017).
Values belong to the compound of their own block, whether it stands above or below them.

Columns and labels:
[1] = Antileukemic activity against human M9-ENL1 cells assessed as increase in apoptotic cell level after 24 hrs by Annexin V/propidium iodide/7-AAD based FACS analysis; type: functional; conditions: M9-ENL1, 24 h
[2] = Cmax in BALB/c mouse at 200 mg/kg, po by LC/MS/MS analysis; type: ADME, organism-based; parameters: dose 200 mg/kg, route oral; conditions: in vivo
[3] = Tmax in BALB/c mouse at 200 mg/kg, po by LC/MS/MS analysis; type: ADME, organism-based; conditions: in vivo
[4] = Apparent elimination half life in BALB/c mouse at 200 mg/kg, po by LC/MS/MS analysis; type: ADME, organism-based; conditions: in vivo
[5] = AUC in BALB/c mouse at 200 mg/kg, po by LC/MS/MS analysis; type: ADME, organism-based; conditions: in vivo
[6] = Total clearance in BALB/c mouse at 20 mg/kg, iv or 200 mg/kg, po by LC/MS/MS analysis; type: ADME, organism-based; conditions: in vivo
[7] = Oral bioavailability in BALB/c mouse at 200 mg/kg by LC/MS/MS analysis; type: ADME, organism-based; conditions: in vivo
[8] = Drug uptake in BALB/c mouse blood at 200 mg/kg, po after 15 mins by LC/MS/MS analysis; type: ADME, organism-based; conditions: in vivo, 0.25 h
[9] = Potency index, ration of parthenolide EC50 to compound EC50 for human M9-ENL1 cells; type: functional
[10] = Cmax in BALB/c mouse at 271.2 mg/kg, po by LC/MS/MS analysis; type: ADME, organism-based; parameters: dose 271.2 mg/kg, route oral; conditions: in vivo
[11] = Tmax in BALB/c mouse at 271.2 mg/kg, po by LC/MS/MS analysis; type: ADME, organism-based; conditions: in vivo
[12] = Apparent elimination half life in BALB/c mouse at 271.2 mg/kg, po by LC/MS/MS analysis; type: ADME, organism-based; conditions: in vivo
[13] = Total clearance in BALB/c mouse at 27.1 mg/kg, iv or 271.2 mg/kg, po by LC/MS/MS analysis; type: ADME, organism-based; conditions: in vivo
[14] = Oral bioavailability in BALB/c mouse at 271.2 mg/kg by LC/MS/MS analysis; type: ADME, organism-based; conditions: in vivo
[15] = Drug uptake in BALB/c mouse blood at 271.2 mg/kg, po after 15 mins by LC/MS/MS analysis; type: ADME, organism-based; conditions: in vivo, 0.25 h
[16] = Drug uptake in BALB/c mouse Plasma at 271.2 mg/kg, po after 15 mins by LC/MS/MS analysis; type: ADME, organism-based; conditions: in vivo, 0.25 h

SMILES: C=C1C(=O)O[C@H]2[C@H]1CC/C(CO)=C\CC[C@@]1(C)O[C@@H]21
EC50 [1]: 15500 nM | Cmax [2]: 4.5 µM | Tmax [3]: 2 h | betat1/2(app) [4]: 61.8 min | AUC [5]: 868.3 µmol·min/L | clearance [6]: 70 mL/min/kg | F [7]: 6.7% | Drug uptake [8]: Active

SMILES: C=C1C(=O)O[C@@H]2[C@H]3O[C@]3(C)CC/C=C(\C)CC[C@@H]12
EC50 [1]: 7000 nM

SMILES: C=C1C(=O)O[C@H]2[C@H]1CC/C(COC(=O)NCc1nc3ccccc3[nH]1)=C\CC[C@@]1(C)O[C@@H]21
EC50 [1]: 3900 nM

These reach a lower EC50 [1]. Values come first.

EC50 [1]: 2100 nM
SMILES: C=C1C(=O)O[C@H]2[C@H]1CC/C(COC(=O)n1ccnc1C)=C\CC[C@@]1(C)O[C@@H]21

EC50 [1]: 1600 nM
SMILES: C=C1C(=O)O[C@H]2[C@H]1CC/C(COC(=O)Nc1nc3ccccc3[nH]1)=C\CC[C@@]1(C)O[C@@H]21

EC50 [1]: 1400 nM
SMILES: C=C1C(=O)O[C@H]2[C@H]1CC/C(COC(=O)n1cc(C)nc1CC)=C\CC[C@@]1(C)O[C@@H]21

EC50 [1]: 900 nM | Cmax [10]: 10.6 µM | Tmax [11]: 0.502 h | betat1/2(app) [12]: 92.3 min | AUC [5]: 2137.5 µmol·min/L | clearance [13]: 200 mL/min/kg | F [14]: 45.5% | Drug uptake [15]: Active | Drug uptake [16]: Active
SMILES: C=C1C(=O)O[C@H]2[C@H]1CC/C(COC(=O)n1ccnc1)=C\CC[C@@]1(C)O[C@@H]21
Ratio EC50 [9]: 8
